From patent US7585875B2, “Substituted pyrazolo[1,5-a]pyridine compounds and their methods of use” (Avigen, Inc., priority 2006, dated 2009) come the findings set out here.

Structures can show the parent of a compound that is named as a salt. Where two headings read alike, the source gives them in different places.

Test [1] deals with mechanical allodynia after chronic constriction injury (CCI) to the sciatic nerve. Nature of the test: Mechanical allodynia by response to von Frey fibers, rat chronic constriction injury (CCI) model. It is filed as in vivo, male Sprague-Dawley rats. As to conditions: 2 hr post dosing. The source says: Chronic Constriction Injury: Heat and cold allodynia responses as well as mechanical allodynia sensations can be evaluated as described below in rats having a chronic constriction injury (CCI). A unilateral mononeuropathy is produced in rats using the chronic constriction injury model described in Bennett et al., Pain (1988) 33:87-107. CCI is produced in anesthetized rats as follows. The lateral aspect of each rat's hind limb is shaved and scrubbed with Nolvasan. Using aseptic techniques, an incision is made on the lateral aspect of the hind limb at the mid-thigh level. The biceps femoris is bluntly dissected to expose the sciatic nerve. On the right hind limb of each rat, four loosely tied ligatures (for example, Chromic gut 4.0; Ethicon, Johnson and Johnson, Somerville, N.J.) are made around the sciatic nerve approximately 1-2 mm apart. On the left side of each rat, an identical dissection is performed except that the sciatic nerve is not ligated (sham). The muscle is closed with a continuous suture pattern with, e.g., 4-0 Vicryl (Johnson and Johnson, Somerville, N.J.) and the overlying skin is closed with wound clips. The rats are ear-tagged for identification purposes and returned to animal housing.
To induce allodynia, male Sprague-Dawley rats underwent chronic constriction injury (CCI) to the sciatic nerve as described by Bennett and Xie, Pain 1988; 33(1):87-107. The plantar surface of the hind paws was stimulated with von Frey filaments (Stoelting) to induce a withdrawal response by blinded personnel. The bending force of fiber required to induce a 50% withdrawal response was calculated following CCI surgery (pre-dosing baseline). N=5-6 allodynic rats received a single intraperitoneal administration of test compound or vehicle. Two hours post-dosing, 50% paw withdrawal threshold was determined again by blinded testers using von Frey filaments. The change in 50% withdrawal threshold relative to pre-dosing baseline is reported in Table 2 for various substituted pyrazolo[1,5-a]pyridine compounds of the invention.

In test [2] the target is phosphodiesterase (PDE) enzyme derived from bovine brain. Briefly: Inhibition of PDE (PDELight kit, cAMP substrate). The format is biochemical. The settings on record: PDE from brain extract, cAMP as substrate. The procedure: In a 96-well plate, phosphodiesterase (PDE) enzyme (0.5-1 mU/well) derived from bovine brain (Sigma) was combined with 5 uM cAMP substrate (Sigma). Test compounds (0-200 uM) or vehicle (0.5% DMSO) were added to the enzyme/substrate and incubated for 1 hour. Using a PDELight® kit (Cambrex), the amount of AMP produced in the reaction from the hydrolysis of cAMP was quantified using PDELight AMP Detection Reagent which converts the AMP directly to ATP. The assay uses luciferase, which catalyses the formation of light from the newly formed ATP and luciferin. The luminescence was read on a Victor Light 1420 luminometer. IC50 calculations were plotted using a nonlinear regression curve fit.

In test [3] the test system is TNF-α production in LPS-stimulated human peripheral blood mononuclear cells. Briefly: Inhibition of LPS-stimulated TNF-α release from PBMCs. The format is cell-based. The settings on record: PBMC. The procedure:
IC50 values were determined for representative compounds of the invention based upon their ability to inhibit LPS-induced cytokine production in human peripheral blood mononuclear cells. Human PBMCs (peripheral blood mononuclear cells) were isolated over a Ficoll gradient from buffy coats obtained from the local Red Cross. 10^6 PBMC cells/well were seeded in 24-well tissue culture plates in RPMI 1640 medium supplemented with 10% human serum, hepes buffer and sodium pyruvate. The cells were treated with 0.1% DMSO (vehicle) or test compounds (1, 10, and 100 uM) 30 minutes prior to activation with LPS (lipopolysaccharide) (E. Coli) at 10 ng/mL. 6-10 hours post LPS stimulation the culture supernatants were collected and levels of cytokines TNF-α and IL-1β were quantified by ELISA (R&D Systems) and/or Luminex (Linco Diagnostics). IC50 calculations were plotted using a nonlinear regression curve fit for exemplary substituted pyrazolo[1,5-a]pyridine compounds of the invention; results are provided in Table 2.

Take `CCC(=O)c1c(CC)nn2ccccc12` [Compound 1040, 1-(2-ethylpyrazolo[1,5-a]pyridin-3-yl)propan-1-one]: the “Mechanical Allodynia ΔWT (change from pre-dosing 50% withdrawal threshold)” value in test [1] (10 mg/kg IP) stood at 0.12 grams. Moreover, the concentration for half-maximal inhibition (IC50) in test [2] is 27.1 µM.
Regarding `CC(C)c1nn2ccccc2c1C(=O)C(C)N1CCOCC1` (stereo not drawn) [Compound 1034, 1-(2-isopropylpyrazolo[1,5-a]pyridin-3-yl)-2-morpholinopropan-1-one hydrochloride], the “Mechanical Allodynia ΔWT (change from pre-dosing 50% withdrawal threshold)” value is given as 10 mg/kg: 1.71 grams in test [1] (10 mg/kg IP) and 20 mg/kg: 0.54 grams in test [1] (20 mg/kg IP). The molecule further gave an IC50 in test [2] of 43.3 µM.
On to `COc1ccc2c(C(=O)C(C)C)c(C(C)C)nn2c1` [compound 1005, 1-(2-isopropyl-6-methoxypyrazolo[1,5-a]pyridin-3-yl)-2-methylpropan-1-one], for which, in test [1] (10 mg/kg IP), the “Mechanical Allodynia ΔWT (change from pre-dosing 50% withdrawal threshold)” value amounted to 0.17 grams. Further, the IC50 in test [3] (LPS-stimulated cytokine release from PBMCs, read-out: TNF-α (IC50)) worked out at 76 µM; in test [2], 59.5 µM.
As for `CNC(C)C(=O)c1c(C(C)C)nn2ccccc12` (stereo not drawn) [Compound 1042, 1-(2-isopropylpyrazolo[1,5-a]pyridin-3-yl)-2-(methylamino)propan-1-one hydrochloride], the “Mechanical Allodynia ΔWT (change from pre-dosing 50% withdrawal threshold)” value is reported as 10 mg/kg: 0.37 grams in test [1] (10 mg/kg IP) and 20 mg/kg: 0.22 grams in test [1] (20 mg/kg IP). Further, in test [2], the IC50 was 31.9 µM.
In the case of `CC(C)c1nn2ccccc2c1C(=O)C(C)N1CCNCC1` (stereo not drawn) [Compound 1037, 1-(2-isopropylpyrazolo[1,5-a]pyridin-3-yl)-2-(piperazin-1-yl)propan-1-one hydrochloride], the “Mechanical Allodynia ΔWT (change from pre-dosing 50% withdrawal threshold)” value in test [1] (10 mg/kg IP) stood at 0 grams. Moreover, in test [2], the IC50 is more than 200 µM.
The molecule `COc1ccc(-c2nn3ccccc3c2C(=NOC(N)=O)C(C)C)cc1` [Compound 1023, 1-(2-(4-methoxyphenyl)pyrazolo[1,5-a]pyridin-3-yl)-2-methylpropan-1-one O-carbamoyl oxime] came in with an IC50 in test [2] of 156 µM.
For `CC(NC1CC1)C(=O)c1c(C(C)C)nn2ccccc12` (stereo not drawn) [Compound 1045, 2-(cyclopropylamino)-1-(2-isopropylpyrazolo[1,5-a]pyridin-3-yl)propan-1-one hydrochloride], the “Mechanical Allodynia ΔWT (change from pre-dosing 50% withdrawal threshold)” value in test [1] (10 mg/kg IP) is given as 0 grams. The molecule also returned a half-inhibitory concentration (IC50) in test [2] of 61.1 µM.
With `CC(C)c1nn2ccccc2c1C(=O)C(C)N(C)Cc1ccccc1` (stereo not drawn) [Compound 1041, 2-(benzyl(methyl)amino)-1-(2-isopropylpyrazolo[1,5-a]pyridin-3-yl)propan-1-one], the “Mechanical Allodynia ΔWT (change from pre-dosing 50% withdrawal threshold)” value in test [1] (10 mg/kg IP) was 0.22 grams. The IC50 in test [2] came out at 21.5 µM.
The corresponding values for `CC(C)c1nn2ccccc2c1C(NC1CC1)C(C)C` (stereo not drawn) [Compound 1044, N-(1-(2-isopropylpyrazolo[1,5-a]pyridin-3-yl)-2-methylpropyl)cyclopropanamine] are 0.08 grams and more than 200 µM.
The corresponding values for `CC(C)c1nn2ccccc2c1C(=O)C(C)N1CCCCC1` (stereo not drawn) [Compound 1036, 1-(2-isopropylpyrazolo[1,5-a]pyridin-3-yl)-2-(piperidin-1-yl)propan-1-one hydrochloride] are 0 grams and more than 200 µM.
The corresponding values for `CC(C)C(=NOC(N)=O)c1c(-c2ccccc2)nn2ccccc12` [Compound 1017, 2-methyl-1-(2-phenylpyrazolo[1,5-a]pyridin-3-yl)propan-1-one O-carbamoyl oxime] are 0.91 grams and more than 200 µM.
As to `CC(C)C(=O)c1c(C(C)(C)O)nn2ccccc12` [compound 1003, 1-(2-(2-hydroxypropan-2-yl)pyrazolo[1,5-a]pyridin-3-yl)-2-methylpropan-1-one], in test [1] (10 mg/kg IP), the “Mechanical Allodynia ΔWT (change from pre-dosing 50% withdrawal threshold)” value is 0 grams. Besides, the IC50 in test [2] was more than 100 µM.
For `COc1ccc(-c2nn3ccccc3c2C(=O)C(C)C)cc1` [Compound 1021, 1-(2-(4-methoxyphenyl)pyrazolo[1,5-a]pyridin-3-yl)-2-methylpropan-1-one], in test [1] (10 mg/kg IP), the “Mechanical Allodynia ΔWT (change from pre-dosing 50% withdrawal threshold)” value was found to be 0.45 grams. Moreover, the 50% inhibitory concentration (IC50) in test [2] was more than 200 µM.
The molecule `CC(C)C(=NOC(N)=O)c1c(-c2ccc(F)cc2)nn2ccccc12` [Compound 1020, 1-(2-(4-fluorophenyl)pyrazolo[1,5-a]pyridin-3-yl)-2-methylpropan-1-one O-carbamoyl oxime] yielded an IC50 in test [2] of more than 200 µM.
As for `CC(C)c1nn2ccccc2c1C(=O)c1ncccc1Cl` [Compound 1038, (3-chloropyridin-2-yl)(2-isopropylpyrazolo[1,5-a]pyridin-3-yl)methanone], the “Mechanical Allodynia ΔWT (change from pre-dosing 50% withdrawal threshold)” value in test [1] (10 mg/kg IP) is recorded as 0.32 grams. In addition, the midpoint of inhibition in test [2], the IC50, lay at 26.4 µM.
The corresponding values for `CC(C)=Cc1c(C(C)C)nn2ccccc12` [compound 1049, 2-isopropyl-3-(2-methylprop-1-enyl)pyrazolo[1,5-a]pyridine] are 0 grams and 92.5 µM.
Consider `CC(C)C(=NO)c1c(-c2ccc(Cl)cc2)nn2ccccc12` [Compound 1025, 1-(2-(4-chlorophenyl)pyrazolo[1,5-a]pyridin-3-yl)-2-methylpropan-1-one oxime], for which the “Mechanical Allodynia ΔWT (change from pre-dosing 50% withdrawal threshold)” value in test [1] (10 mg/kg IP) came to 0.81 grams. The 50% inhibitory concentration (IC50) in test [2] turned out to be 23 µM.
With `CC(C)C(=O)c1c(-c2ccc(Cl)cc2)nn2ccccc12` [Compound 1024, 1-(2-(4-chlorophenyl)pyrazolo[1,5-a]pyridin-3-yl)-2-methylpropan-1-one], the “Mechanical Allodynia ΔWT (change from pre-dosing 50% withdrawal threshold)” value in test [1] (10 mg/kg IP) was 0.43 grams. Moreover, the half-maximal inhibitory concentration (IC50) in test [3] (less than or equal to about 50 μM, PBMCs, read-out: IC50, LPS-induced cytokine production (cytokine not specified)) was not above 50 µM; in test [2], 18.2 µM.
Regarding `CC(C)C(=NOC(N)=O)c1c(-c2ccc(Cl)cc2)nn2ccccc12` [Compound 1026, 1-(2-(4-chlorophenyl)pyrazolo[1,5-a]pyridin-3-yl)-2-methylpropan-1-one O-carbamoyl oxime], the “Mechanical Allodynia ΔWT (change from pre-dosing 50% withdrawal threshold)” value in test [1] (10 mg/kg IP) is reported as 1.14 grams. Moreover, inhibition in test [2] was half-maximal at 27.7 µM (IC50).
As for `COc1ccc(-c2nn3ccccc3c2C(=NO)C(C)C)cc1` [Compound 1022, 1-(2-(4-methoxyphenyl)pyrazolo[1,5-a]pyridin-3-yl)-2-methylpropan-1-one oxime], in test [1] (10 mg/kg IP), the “Mechanical Allodynia ΔWT (change from pre-dosing 50% withdrawal threshold)” value was 0 grams. In test [2], this molecule came in with an IC50 of 23.9 µM.
Taken in the same sequence, the figures for `CC(C)c1nn2ccccc2c1C(=O)C(C)N1CCN(C)CC1` (stereo not drawn) [Compound 1035, 1-(2-isopropylpyrazolo[1,5-a]pyridin-3-yl)-2-(4-methylpiperazin-1-yl)propan-1-one hydrochloride] were 0 grams and 198 µM.
The corresponding values for `CC(C)c1nn2ccccc2c1C(NCC1CC1)C(C)C` (stereo not drawn) [Compound 1048, N-(cyclopropylmethyl)-1-(2-isopropylpyrazolo[1,5-a]pyridin-3-yl)-2-methylpropan-1-amine hydrochloride] are 0 grams and more than 200 µM.
Take `CC(C)c1nn2ccccc2c1C(=O)C(N)c1ccccc1` (stereo not drawn) [Compound 1039, 2-amino-1-(2-isopropylpyrazolo[1,5-a]pyridin-3-yl)-2-phenylethanone]: the “Mechanical Allodynia ΔWT (change from pre-dosing 50% withdrawal threshold)” value in test [1] (10 mg/kg IP) is 0.05 grams. Moreover, the 50% inhibitory concentration (IC50) in test [2] was determined as 8.2 µM.

One may read the IC50 as the concentration that gives 50% inhibition.
